pEC50: −log10 of the molar value.
test system: ATF4 luciferase reporter in HEK293T cells; assay: ATF4-Luc assay (ATF4 luciferase reporter, tunicamycin-treated HEK293T cells); format: cell-based, human; settings: Homo sapiens, HEK-293T; HEK293T cells carrying the ATF4 luciferase reporter, 1 μg/mL tunicamycin, 7 hours
Procedure: In order to test exemplary compounds of the invention in a cellular context, a stable VWMD cell line was first constructed. The ATF4 reporter was prepared by fusing the human full-length ATF4 5′-UTR (NCBI Accession No. BC022088.2) in front of the firefly luciferase (FLuc) coding sequence lacking the initiator methionine as described in Sidrauski et al (eLife 2013). The construct was used to produce recombinant retroviruses using standard methods and the resulting viral supernatant was used to transduce HEK293T cells, which were then subsequently selected with puromycin to generate a stable cell line.
HEK293T cells carrying the ATF4 luciferase reporter were plated on polylysine coated 384-well plates (Greiner Bio-one) at 30,000 cells per well. Cells were treated the next day with 1 μg/mL tunicamycin and 200 nM of a compound of Formula (I) for 7 hours. Luminescence was measured using One Glo (Promega) as specified by the manufacturer. Cells were maintained in DMEM with L-glutamine supplemented with 10% heat-inactivated FBS (Gibco) and Antibiotic-Antimycotic solution (Gibco).
Table 2 below summarizes the EC50 data obtained using the ATF4-Luc assay for exemplary compounds of the invention.

**Q.** With `Nc1nc(Cl)ccc1OCC(=O)NC12CC(NC(=O)COc3ccc(Cl)c(F)c3)(C1)C2` [Compound 236, 2-[(2-amino-6-chloropyridin-3-yl)oxy]-N-{3-[2-(4-chloro-3-fluorophenoxy)acetamido]bicyclo[1.1.1]pentan-1-yl}acetamide] as the compound, how does the pEC50 read?
**A.** Its pEC50 is 7.30 to 8.00.

**Q.** With `Cc1nn(C)c(C)c1OCC(=O)NC12CC(NC(=O)COc3ccc(Cl)c(F)c3)(C1)C2` [Compound 374, 2-(4-chloro-3-fluorophenoxy)-N-(3-{2-[(1,3,5-trimethyl-1H-pyrazol-4-yl)oxy]acetamido}bicyclo[1.1.1]pentan-1-yl)acetamide] as the compound, how does the pEC50 read?
**A.** The pEC50 was under 5.70.

**Q.** With `CC(C)(C)c1ccc(OCC(=O)NC23CCC(NC(=O)COc4ccc(Cl)c(F)c4)(CC2)[C@@H](O)C3)cc1` [Compound 477, 2-(4-tert-butylphenoxy)-N-{(3S)-4-[2-(4-chloro-3-fluorophenoxy)acetamido]-3-hydroxybicyclo[2.2.2]octan-1-yl}acetamide] as the compound, how does the pEC50 read?
**A.** Its pEC50 is under 5.70.

**Q.** `COc1cc(OCC(=O)NC23CCC(NC(=O)COc4ccc(F)c(F)c4)(CC2)C[C@@H]3O)ccc1F` [Compound 770, 2-(3,4-difluorophenoxy)-N-{(3S)-4-[2-(4-fluoro-3-methoxyphenoxy)acetamido]-3-hydroxybicyclo[2.2.2]octan-1-yl}acetamide] was tested. Which pEC50 did it give?
**A.** The pEC50 was over 8.00.

**Q.** With `CS(=O)(=O)OC1CC2(NC(=O)COc3ccc(Cl)c(F)c3)CCC1(NC(=O)COc1ccc(Cl)c(F)c1)CC2` (stereo not shown) [Compound 344, 1,4-bis[2-(4-chloro-3-fluorophenoxy)acetamido]bicyclo[2.2.2]octan-2-yl methanesulfonate] as the compound, how does the pEC50 read?
**A.** Its pEC50 is over 8.00.

**Q.** With `O=C(COc1ccc(C(F)(F)F)nc1)NC12CCC(NC(=O)COc3ccc(Cl)c(F)c3)(CC1)[C@@H](O)C2` [Compound 589, 2-(4-chloro-3-fluorophenoxy)-N-[(2S)-2-hydroxy-4-(2-{[6-(trifluoromethyl)pyridin-3-yl]oxy}acetamido)bicyclo[2.2.2]octan-1-yl]acetamide] as the compound, how does the pEC50 read?
**A.** The pEC50 was over 8.00.

**Q.** How did the pEC50 turn out when `O=C(COc1ccc(C(F)F)cc1)NC12CC(NC(=O)COc3ccc(Cl)c(F)c3)(C1)C2` [Compound 388, 2-(4-chloro-3-fluorophenoxy)-N-(3-{2-[4-(difluoromethyl)phenoxy]acetamido}bicyclo[1.1.1]pentan-1-yl)acetamide] was run?
**A.** Its pEC50 is 7.30 to 8.00.

**Q.** With `O=C(COc1ccc(Cl)c(F)c1)NC12CC(NC(=O)COc3ccc(Cl)c(Cl)c3)(C1)C2` [Compound 121, 2-(4-chloro-3-fluorophenoxy)-N-{3-[2-(3,4-dichlorophenoxy)acetamido]-bicyclo[1.1.1]pentan-1-yl}acetamide] as the compound, how does the pEC50 read?
**A.** Its pEC50 is over 8.00.

**Q.** With `O=C(COc1ccc(Cl)c(F)c1)NC12CC(NC(=O)COc3ccc(Cl)c(F)c3)(C1)C2` [Compound 186, N,N′-(bicyclo[1.1.1]pentane-1,3-diyl)bis[2-(4-chloro-3-fluorophenoxy)acetamide]] as the compound, how does the pEC50 read?
**A.** The pEC50 was over 8.00.

**Q.** How did the pEC50 turn out when `Cc1noc([C@H]2CC3(NC(=O)COc4ccc(Cl)c(F)c4)CCC2(NC(=O)COc2ccc(Cl)c(F)c2)CC3)n1` [Compound 420, N,N′-[(2S)-2-(3-methyl-1,2,4-oxadiazol-5-yl)bicyclo[2.2.2]octane-1,4-diyl]bis[2-(4-chloro-3-fluorophenoxy)acetamide]] was run?
**A.** The pEC50 was over 8.00.

**Q.** How did the pEC50 turn out when `O=C(COc1ccc(Cl)c(F)c1)NC12CCC(NC(=O)COc3ccnc(C(F)(F)F)c3)(CC1)[C@@H](O)C2` (single isomer, unassigned) [Compound 319] was run?
**A.** Its pEC50 is over 8.00.

**Q.** How did the pEC50 turn out when `O=C(COc1ccc(F)c(F)c1)NC12CCC(NC(=O)COc3ccc(OC(F)F)c(F)c3)(CC1)[C@@H](O)C2` [Compound 803, 2-[4-(difluoromethoxy)-3-fluorophenoxy]-N-{(2S)-4-[2-(3,4-difluorophenoxy)acetamido]-2-hydroxybicyclo[2.2.2]octan-1-yl}acetamide] was run?
**A.** The pEC50 was over 8.00.

**Q.** With `O=C(COc1ccc(Cl)c(F)c1)NC12CCC(NC(=O)COc3nc(N4CCCCC4)nc(N4CCCCC4)n3)(CC1)[C@@H](O)C2` [Compound 523, 2-(4-chloro-3-fluorophenoxy)-N-[(3S)-4-(2-{[4,6-di(piperidin-1-yl)-1,3,5-triazin-2-yl]oxy}acetamido)-3-hydroxybicyclo[2.2.2]octan-1-yl]acetamide] as the compound, how does the pEC50 read?
**A.** Its pEC50 is under 5.70.

**Q.** `Cc1cc(C)cc(OCC(=O)NC23CCC(NC(=O)COc4ccc(Cl)c(F)c4)(CC2)[C@@H](O)C3)c1` [Compound 470, 2-(4-chloro-3-fluorophenoxy)-N-{(2S)-4-[2-(3,5-dimethylphenoxy)acetamido]-2-hydroxybicyclo[2.2.2]octan-1-yl}acetamide] was tested. Which pEC50 did it give?
**A.** The pEC50 was 7.30 to 8.00.

**Q.** With `CCc1cc(C)cc(OCC(=O)NC23CCC(NC(=O)COc4ccc(Cl)c(F)c4)(CC2)[C@@H](O)C3)c1` [Compound 463, 2-(4-chloro-3-fluorophenoxy)-N-{(2S)-4-[2-(3-ethyl-5-methylphenoxy)acetamido]-2-hydroxybicyclo[2.2.2]octan-1-yl}acetamide] as the compound, how does the pEC50 read?
**A.** Its pEC50 is under 5.70.

**Q.** With `O=C(COc1ccnc(C(F)(F)F)c1)NC12CC(NC(=O)COc3ccc(Cl)c(F)c3)(C1)C2` [Compound 233, 2-(4-chloro-3-fluorophenoxy)-N-[3-(2-{[2-(trifluoromethyl)pyridin-4-yl]oxy}acetamido)bicyclo[1.1.1]pentan-1-yl]acetamide] as the compound, how does the pEC50 read?
**A.** Its pEC50 is 7.30 to 8.00.

**Q.** `O=C(COc1cc(F)c2cn[nH]c2c1)NC12CCC(NC(=O)COc3ccc(OC(F)(F)F)c(F)c3)(CC1)[C@@H](O)C2` [Compound 724] was tested. Which pEC50 did it give?
**A.** Its pEC50 is over 8.00.

**Q.** With `N#Cc1cccc(COCC(=O)NC23CC(NC(=O)COc4ccc(Cl)c(Cl)c4)(C2)C3)c1` [Compound 161, 2-[(3-cyanophenyl)methoxy]-N-{3-[2-(3,4-dichlorophenoxy)acetamido]bicyclo[1.1.1]pentan-1-yl}acetamide] as the compound, how does the pEC50 read?
**A.** The pEC50 was 6.60 to 7.30.

**Q.** `O=C(COc1ccc(C(F)(F)F)cc1)NC12CCC(NC(=O)COc3ccc(Cl)c(F)c3)(CC1)[C@@H](O)C2` [Compound 468, 2-(4-chloro-3-fluorophenoxy)-N-[(2S)-2-hydroxy-4-{2-[4-(trifluoromethyl)phenoxy]acetamido}bicyclo[2.2.2]octan-1-yl]acetamide] was tested. Which pEC50 did it give?
**A.** The pEC50 was over 8.00.

**Q.** How did the pEC50 turn out when `O=C(COc1ccc(Cl)c(Cl)c1)NC12CC(NC(=O)OCCc3cccc(Cl)c3)(C1)C2` [Compound 173, 2-(3-chlorophenyl)ethyl {3-[2-(3,4-dichlorophenoxy)acetamido]-bicyclo[1.1.1]pentan-1-yl}carbamate] was run?
**A.** Its pEC50 is 6.60 to 7.30.

**Q.** `O=C(COc1ccc(Cl)c(F)c1)NC12CCC(NC(CCOc3ccc(Cl)cc3)C(=O)O)(CC1)C[C@@H]2O` (stereo partly drawn) [Compound 706, 2-({(3S)-4-[2-(4-chloro-3-fluorophenoxy)acetamido]-3-hydroxybicyclo[2.2.2]octan-1-yl}amino)-4-(4-chlorophenoxy)butanoic acid] was tested. Which pEC50 did it give?
**A.** The pEC50 was 6.30 to 6.60.

**Q.** How did the pEC50 turn out when `O=C(COc1ccc(Cl)c(Cl)c1)NC12CCCC(NC(=O)COc3ccc(Cl)c(Cl)c3)(C1)C2` [Compound 209] was run?
**A.** The pEC50 was under 5.70.

**Q.** With `O=C(COc1ccc(F)cc1)NC12CC(NC(=O)COc3ccc(Cl)cc3)(C1)C2` [Compound 120, 2-(4-chlorophenoxy)-N-{3-[2-(4-fluorophenoxy)acetamido]bicyclo-[1.1.1]pentan-1-yl}acetamide] as the compound, how does the pEC50 read?
**A.** Its pEC50 is 7.30 to 8.00.

**Q.** How did the pEC50 turn out when `O=C(COc1ccc(Cl)c(F)c1)NC12CCC(NC(=O)COc3nc4ccccc4s3)(CC1)[C@@H](O)C2` [Compound 512, 2-[(1,3-benzothiazol-2-yl)oxy]-N-{(2S)-4-[2-(4-chloro-3-fluorophenoxy)acetamido]-2-hydroxybicyclo[2.2.2]octan-1-yl}acetamide] was run?
**A.** The pEC50 was under 5.70.

**Q.** How did the pEC50 turn out when `O=C(COc1ccc(Cl)cc1)NC12CCC(NC(=O)COc3ccc(OC(F)(F)F)c(F)c3)(CC1)CC2` [Compound 741, 2-(4-chlorophenoxy)-N-(4-{2-[3-fluoro-4-(trifluoromethoxy)phenoxy]acetamido}bicyclo[2.2.2]octan-1-yl)acetamide] was run?
**A.** Its pEC50 is 7.30 to 8.00.

**Q.** `Cc1ccc(OCC(=O)NC23CC(NC(=O)COc4ccc(Cl)c(F)c4)(C2)C3)c(N)n1` [Compound 229, 2-[(2-amino-6-methylpyridin-3-yl)oxy]-N-{3-[2-(4-chloro-3-fluorophenoxy)acetamido]bicyclo[1.1.1]pentan-1-yl}acetamide] was tested. Which pEC50 did it give?
**A.** Its pEC50 is 5.70 to 6.30.

**Q.** How did the pEC50 turn out when `Cc1ccc(OCC(=O)NC23CCC(NC(=O)COc4ccc(Cl)c(F)c4)(CC2)C[C@@H]3O)cc1C` [Compound 510, 2-(4-chloro-3-fluorophenoxy)-N-{(3S)-4-[2-(3,4-dimethylphenoxy)acetamido]-3-hydroxybicyclo[2.2.2]octan-1-yl}acetamide] was run?
**A.** Its pEC50 is over 8.00.

**Q.** How did the pEC50 turn out when `O=C(COc1ccc(Cl)c(F)c1)NC12CC(NCC(=O)c3ccc(Cl)cc3)(C1)C2` [Compound 289, 2-(4-chloro-3-fluorophenoxy)-N-(3-{[2-(4-chlorophenyl)-2-oxoethyl]amino}bicyclo[1.1.1]pentan-1-yl)acetamide] was run?
**A.** Its pEC50 is 6.60 to 7.30.

**Q.** `O=C(O)/C=C1\CC2(NC(=O)COc3ccc(Cl)c(F)c3)CCC1(NC(=O)COc1ccc(Cl)c(F)c1)CC2` [Compound 669, (2E)-{1,4-bis[2-(4-chloro-3-fluorophenoxy)acetamido]bicyclo[2.2.2]octan-2-ylidene}acetic Acid] was tested. Which pEC50 did it give?
**A.** The pEC50 was 6.60 to 7.30.

**Q.** `O=C(CCOc1cccc(Cl)c1)NC12CC(NC(=O)COc3ccc(Cl)c(Cl)c3)(C1)C2` [Compound 169, 3-(3-chlorophenoxy)-N-{3-[2-(3,4-dichlorophenoxy)acetamido]bicyclo-[1.1.1]pentan-1-yl}propanamide] was tested. Which pEC50 did it give?
**A.** The pEC50 was 6.30 to 6.60.

**Q.** `O=C(COc1ccc(Cl)c(F)c1)NC12CCC(NC(=O)COc3ccc(Cl)c(F)c3)(CC1)C(Br)C2=O` (stereo not shown) [Compound 572, N,N′-(2-bromo-3-oxobicyclo[2.2.2]octane-1,4-diyl)bis[2-(4-chloro-3-fluorophenoxy)acetamide]] was tested. Which pEC50 did it give?
**A.** The pEC50 was 7.30 to 8.00.

Reference: US20240166652A1, “MODULATORS OF THE INTEGRATED STRESS PATHWAY” (Calico Life Sciences LLC, priority 2017, published 2024)
